Data published in article PMC10620772, “Design, synthesis, and biological evaluation of new pyrimidine-5-carbonitrile derivatives as novel anti-cancer, dual EGFR^WT/COX-2 inhibitors with docking studies” (RSC Advances, 2023).

Tests used:
Test in all cases: NCI60 antitumor screening
Type in all cases: cell-based, human
SF-295 = tested on: SF-295
SNB-75 = conditions: Homo sapiens; 10 μM single dose; SNB-75 (CNS cancer); read-out: growth inhibition percent (GI%)
U251 = tested on: U251
MALME-3M = tested on: MALME-3M
M14 = tested on: M14
MDA-MB-435 = tested on: MDA-MB-435
SK-MEL-2 = conditions: Homo sapiens; 10 μM single dose; SK-MEL-2 (melanoma); read-out: growth inhibition percent (GI%)
UACC-62 = tested on: UACC-62
IGROV1 = tested on: IGROV1
OVCAR-3 = tested on: OVCAR-3
OVCAR-4 = tested on: OVCAR-4
OVCAR-5 = tested on: OVCAR-5
786–0 = tested on: 786–0
SN12C = tested on: SN12C
UO-31 = conditions: Homo sapiens; 10 μM single dose; UO-31 (renal cancer); read-out: growth inhibition percent (GI%)
PC-3 = tested on: PC-3
DU-145 = tested on: DU-145
HS 578T = tested on: HS 578T
BT-549 = tested on: BT-549
T-47D = tested on: T-47D
MDA-MB-468 = tested on: MDA-MB-468
[1] = Homo sapiens, OVCAR-4, five-dose
[2] = Homo sapiens, MDA-MB-468, five-dose

`N#Cc1c(-c2ccc(F)cc2)nc(SCc2ccccc2)nc1N1CCNCC1` [4e, 2-(Benzylthio)-4-(4-fluorophenyl)-6-(piperazin-1-yl) pyrimidine-5-carbonitrile] showed a CC50 (SF-295; Homo sapiens, SF-295, five-dose, read-out: LC50 (the source's name)) of 57.5 µM, an inhibition at 10 µM (SF-295; Homo sapiens, 10 μM single dose, SF-295 (CNS cancer), read-out: growth inhibition percent (GI%)) of over 100% and a TGI (SF-295; five-dose) of 30.10 µM. For the same molecule, the inhibition at 10 µM (SNB-75) was over 100%, the inhibition at 10 µM (U251; Homo sapiens, U-251, 10 μM single dose, U251 (CNS cancer), read-out: growth inhibition percent (GI%)) was over 100% and the GI50 (U251; Homo sapiens, U-251, five-dose) was 4.36 µM. The CC50 (U251; Homo sapiens, U-251, five-dose, read-out: LC50 (the source's name)) was 44.6 µM, the TGI (U251; five-dose) was 16.10 µM and the GI50 (MALME-3M; Homo sapiens, Malme-3M, five-dose) was 14.1 µM. The CC50 (MALME-3M; Homo sapiens, Malme-3M, five-dose, read-out: LC50 (the source's name)) was 56.3 µM, the inhibition at 10 µM (MALME-3M; Homo sapiens, 10 μM single dose, MALME-3M (melanoma), read-out: growth inhibition percent (GI%)) was over 100% and the TGI (MALME-3M; five-dose) was 28.20 µM. The GI50 (M14; Homo sapiens, M14, five-dose) was 12 µM, the CC50 (M14; Homo sapiens, M14, five-dose, read-out: LC50 (the source's name)) was 51.4 µM and the inhibition at 10 µM (M14; Homo sapiens, 10 μM single dose, M14 (melanoma), read-out: growth inhibition percent (GI%)) was over 100%. It also gave a TGI (M14; five-dose) of 24.80 µM, a GI50 (MDA-MB-435; Homo sapiens, MDA-MB-435, five-dose) of 16.9 µM and a CC50 (MDA-MB-435; Homo sapiens, MDA-MB-435, five-dose, read-out: LC50 (the source's name)) of 58.8 µM. It also gave an inhibition at 10 µM (MDA-MB-435; Homo sapiens, 10 μM single dose, MDA-MB-435 (melanoma), read-out: growth inhibition percent (GI%)) of over 100%, a TGI (MDA-MB-435; five-dose) of 31.50 µM and an inhibition at 10 µM (SK-MEL-2) of over 100%. For the same molecule, the GI50 (UACC-62; Homo sapiens, UACC-62, five-dose) was 14.4 µM, the CC50 (UACC-62; Homo sapiens, UACC-62, five-dose, read-out: LC50 (the source's name)) was 55 µM and the inhibition at 10 µM (UACC-62; Homo sapiens, 10 μM single dose, UACC-62 (melanoma), read-out: growth inhibition percent (GI%)) was over 100%. The TGI (UACC-62; five-dose) was 28.20 µM, the inhibition at 10 µM (IGROV1; Homo sapiens, IGROV-1, 10 μM single dose, IGROV1 (ovarian cancer), read-out: growth inhibition percent (GI%)) was over 100% and the GI50 (IGROV1; Homo sapiens, IGROV-1, five-dose) was 14.7 µM. For the same molecule, the CC50 (IGROV1; Homo sapiens, IGROV-1, five-dose, read-out: LC50 (the source's name)) was 56.7 µM, the TGI (IGROV1; five-dose) was 28.90 µM and the GI50 (OVCAR-3; Homo sapiens, OVCAR-3, five-dose) was 14.3 µM. It also gave a CC50 (OVCAR-3; Homo sapiens, OVCAR-3, five-dose, read-out: LC50 (the source's name)) of 59.1 µM, an inhibition at 10 µM (OVCAR-3; Homo sapiens, 10 μM single dose, OVCAR-3 (ovarian cancer), read-out: growth inhibition percent (GI%)) of over 100% and a TGI (OVCAR-3; five-dose) of 29.10 µM. For the same molecule, the GI50 (OVCAR-4; [1]) was 15.7 µM, the LC50 (lethal concentration, 50% cell kill) (OVCAR-4; [1]) was 74.7 µM and the inhibition at 10 µM (OVCAR-4; Homo sapiens, 10 μM single dose, OVCAR-4 (ovarian cancer), read-out: growth inhibition percent (GI%)) was over 100%. The TGI (OVCAR-4; five-dose) was 34.20 µM, the GI50 (OVCAR-5; Homo sapiens, OVCAR-5, five-dose) was 14.1 µM and the CC50 (OVCAR-5; Homo sapiens, OVCAR-5, five-dose, read-out: LC50 (the source's name)) was 54.2 µM. For the same molecule, the inhibition at 10 µM (OVCAR-5; Homo sapiens, 10 μM single dose, OVCAR-5 (ovarian cancer), read-out: growth inhibition percent (GI%)) was over 100%, the TGI (OVCAR-5; five-dose) was 27.60 µM and the GI50 (786–0; Homo sapiens, 786-0, five-dose) was 11 µM. For the same molecule, the LC50 (concentration killing 50% of tumour cells) (786–0; Homo sapiens, 786-0, five-dose) was 58.9 µM, the inhibition at 10 µM (786–0; Homo sapiens, 10 μM single dose, 786–0 (renal cancer), read-out: growth inhibition percent (GI%)) was over 100% and the TGI (786–0; five-dose) was 25.40 µM. For the same molecule, the GI50 (SN12C; Homo sapiens, SN12C, five-dose) was 13.8 µM, the CC50 (SN12C; Homo sapiens, SN12C, five-dose, read-out: LC50 (the source's name)) was 53.8 µM and the inhibition at 10 µM (SN12C; Homo sapiens, 10 μM single dose, SN12C (renal cancer), read-out: growth inhibition percent (GI%)) was over 100%. For the same molecule, the TGI (SN12C; five-dose) was 27.20 µM, the inhibition at 10 µM (UO-31) was over 100% and the GI50 (PC-3; Homo sapiens, PC-3, five-dose) was 11.8 µM. It also gave a CC50 (PC-3; Homo sapiens, PC-3, five-dose, read-out: LC50 (the source's name)) of 56.4 µM, an inhibition at 10 µM (PC-3; Homo sapiens, 10 μM single dose, PC-3 (prostate cancer), read-out: growth inhibition percent (GI%)) of over 100% and a TGI (PC-3; five-dose) of 25.80 µM. It also gave a GI50 (DU-145; Homo sapiens, DU-145, five-dose) of 15 µM, a CC50 (DU-145; Homo sapiens, DU-145, five-dose, read-out: LC50 (the source's name)) of 56 µM and an inhibition at 10 µM (DU-145; Homo sapiens, DU-145, read-out: growth inhibition percent (GI%)) of over 100%. The TGI (DU-145; five-dose) was 29.00 µM, the GI50 (HS 578T; Homo sapiens, Hs-578T, five-dose) was 14.1 µM and the CC50 (HS 578T; Homo sapiens, Hs-578T, five-dose, read-out: LC50 (the source's name)) was 72.7 µM. It also gave an inhibition at 10 µM (HS 578T; Homo sapiens, 10 μM single dose, HS 578T (breast cancer), read-out: growth inhibition percent (GI%)) of over 100%, a TGI (HS 578T; five-dose) of 32.00 µM and a GI50 (BT-549; Homo sapiens, BT-549, five-dose) of 13 µM. The CC50 (BT-549; Homo sapiens, BT-549, five-dose, read-out: LC50 (the source's name)) was 53.6 µM, the inhibition at 10 µM (BT-549; Homo sapiens, 10 μM single dose, BT-549 (breast cancer), read-out: growth inhibition percent (GI%)) was over 100% and the TGI (BT-549; five-dose) was 26.40 µM. The inhibition at 10 µM (T-47D; Homo sapiens, T47D, 10 μM single dose, T-47D (breast cancer), read-out: growth inhibition percent (GI%)) was over 100%, the GI50 (T-47D; Homo sapiens, T47D, five-dose) was 10.1 µM and the CC50 (T-47D; Homo sapiens, T47D, five-dose, read-out: LC50 (the source's name)) was 61 µM. The TGI (T-47D; five-dose) was 24.80 µM, the GI50 (MDA-MB-468; [2]) was 6.71 µM and the LC50 (MDA-MB-468; [2]) was 51.6 µM. It also gave an inhibition at 10 µM (MDA-MB-468; Homo sapiens, 10 μM single dose, MDA-MB-468 (breast cancer), read-out: growth inhibition percent (GI%)) of over 100% and a TGI (MDA-MB-468; five-dose) of 21.30 µM.
